From patent publication EP4700023A1, “GLP-1R RECEPTOR AGONIST COMPOUND SALT AND CRYSTAL FORM THEREOF, PREPARATION METHOD THEREFOR AND USE THEREOF” (Chengdu Vincentage Pharma Co., Ltd., priority 2023, dated 2024)
Counter-ions that a name gives are not always drawn.

Assays:
[1] = Pharmacokinetic evaluation in rats; type: in vivo; conditions: Rat PK, 10 mg/kg
Description: Rats were used as test animals, and the plasma drug concentrations at different time points after gavage administration of the test sample were measured. The pharmacokinetic behavior of the compound of the present disclosure in rats was studied to evaluate its metabolic characteristics. For each experimental group, 3 rats with similar body weights were selected and orally administered a single dose of 10 mg/kg. […] Pharmacokinetic parameter calculations were performed using metabolic kinetic data analysis software WinNonlin 7.0 by non-compartmental analysis (NCA) based on plasma concentration data.
A test sample with a final preparation concentration (based on the content of the compound of formula I) of 1.0 mg/mL was prepared for oral administration, using a 0.5% CMC Na aqueous solution as the preparation solvent.
Administration: After overnight fasting (12 hours), rats were administered by gavage at a dose of 10 mg/kg.
The blood samples were placed in heparinized sample tubes, and centrifuged at 4°C and 3500 rpm for 10 minutes to separate plasma, which was then stored at -20°C. Food was provided 2 hours after administration.
Determination of the content of the compound to be tested in rat plasma after gavage administration: After thawing plasma samples at room temperature, 300 µL of internal standard (terfenadine 200 ng/mL, acetonitrile) was added to each sample. The mixtures were vortexed for 1 min and then centrifuged at 4°C and 15400 rpm for 10 min. The supernatant was diluted 20-fold with 80% acetonitrile-water and then injected for LC/MS/MS analysis.

[2] = Purity test after storage in an oven at set temperature (stability); type: physicochemical; conditions: 80°C, 1 day
[3] = Hygroscopicity test method (DVS); type: physicochemical; parameters: Sorption / Desorption / Hysteresis: unit not given here; conditions: for Hygroscopicity (80% RH) / Hygroscopicity (80% RH), description in words: 25°C, DVS; for Desorption / Sorption / Hysteresis: onset temperature 24.9°C
Description: Hygroscopicity test method (DVS): The hygroscopicity of the sample was measured using SMS Intrinsic Plus. The sample was weighed into a sample pan, equilibrated at 25°C until dm/dt was less than 0.002%, and then measured in time mode. The humidity was adjusted from 60%-90%-0%-90%-0% RH, with increments of 10% RH per step, and each humidity level was maintained for 1 hour.

[4] = Purity test after storage in an oven at set temperature (stability); type: physicochemical; conditions: HPLC; for Purity, Onset: Onset (before storage)
Description: Purity test: The sample to be tested was dissolved in a methanol solution, and the sample purity was measured by HPLC.

[5] = Grindability test (mortar, XRPD detection); type: physicochemical; conditions: for Grindability (mortar 5 min), solid form: XRPD
Description: Grindability test: An appropriate amount of the crystal compound to be tested was placed in a mortar and ground for 2 min and 5 min, followed by XRPD detection.

[6] = Compressibility test (tableting, XRPD detection); type: physicochemical; conditions: compressed into tablets
[7] = Tableting and grinding test (XRPD, FIG. 21 to 25); type: physicochemical
Description: Grindability test: An appropriate amount of the crystal compound to be tested was placed in a mortar and ground for 2 min and 5 min, followed by XRPD detection. […]

[8] = Cycle 2, target humidity 0.0 % P/P0
[9] = Cycle 2, target humidity 10.0 % P/P0
[10] = Cycle 2, target humidity 20.0 % P/P0
[11] = Cycle 2, target humidity 30.0 % P/P0
[12] = Cycle 2, target humidity 40.0 % P/P0
[13] = Cycle 2, target humidity 50.0 % P/P0
[14] = Cycle 2, target humidity 60.0 % P/P0
[15] = Cycle 2, target humidity 70.0 % P/P0
[16] = Cycle 2, target humidity 80.0 % P/P0
[17] = Cycle 2, target humidity 90.0 % P/P0
[18] = Target humidity 0.0 % P/P0, first cycle
[19] = Target humidity 10.0 % P/P0, first cycle
[20] = Target humidity 20.0 % P/P0, first cycle
[21] = Target humidity 30.0 % P/P0, first cycle
[22] = Target humidity 40.0 % P/P0, first cycle
[23] = Target humidity 50.0 % P/P0, first cycle
[24] = Target humidity 60.0 % P/P0, first cycle
[25] = Target humidity 70.0 % P/P0, first cycle
[26] = Target humidity 80.0 % P/P0, first cycle
[27] = Target humidity 90.0 % P/P0, first cycle
[28] = after tableting, after grinding for 5 minutes and for 2 minutes, FIG. 21 to 23

Compound `O=C(O)c1ccc2nc(CN3CCC(c4ccccc4OCc4ccc(Cl)cc4F)CC3)n(C[C@@H]3CCO3)c2c1` [Crystal form A of the monohydrate of the 2-amino-2-(hydroxymethyl)-1,3-propanediol salt of (S)-2-((4-(2-((4-chloro-2-fluorobenzyl)oxy)phenyl)piperidin-1-yl)methyl)-1-(oxetan-2-aminomethyl)-1H-benzo[d]imidazole-6-carboxylate] has an AUC(0-inf) ([1]; in vivo, oral (PO)) of 772 ng·h/mL, an AUC(0-t) ([1]; in vivo, oral (PO)) of 765 ng·h/mL and a Cmax ([1]; in vivo, oral (PO)) of 410 ng/mL. It also gave a Tmax ([1]; in vivo, oral (PO)) of 0.41 h and a half-life ([1]; in vivo, oral (PO)) of 1.59 h.
For `O=C(O)c1ccc2nc(CN3CCC(c4ccccc4OCc4ccc(Cl)cc4F)CC3)n(C[C@@H]3CCO3)c2c1` [Crystal form A of the monohydrate of the compound of formula] [Crystal form A of the monohydrate of the 2-amino-2-(hydroxymethyl)-1,3-propanediol salt of (S)-2-((4-(2-((4-chloro-2-fluorobenzyl)oxy)phenyl)piperidin-1-yl)methyl)-1-(oxetan-2-aminomethyl)-1H-benzo[d]imidazole-6-carboxylate], the Oral absorption ([1]; compared with the free acid) was “significantly better oral absorption than the compound of formula I (free acid)”, the “Solid form after 80°C (1 day)” value [2] was “retained the crystal form” and the “Hygroscopicity (80% RH)” value [3] was 0.34%. The “Hygroscopicity (80% RH), description in words” value [3] was “Slightly hygroscopic”, the Desorption [3, 8] was 0.0112 and the Sorption [3, 8] was 0.0000. For the same compound, the Desorption [3, 9] was 0.1186, the Hysteresis [3, 9] was 0.0161 and the Sorption [3, 9] was 0.1025. For the same compound, the Desorption [3, 10] was 0.1641, the Hysteresis [3, 10] was 0.0175 and the Sorption [3, 10] was 0.1466. For the same compound, the Desorption [3, 11] was 0.1996, the Hysteresis [3, 11] was 0.0182 and the Sorption [3, 11] was 0.1814. It also gave a Desorption [3, 12] of 0.2286, a Hysteresis [3, 12] of 0.0145 and a Sorption [3, 12] of 0.2141. The Desorption [3, 13] was 0.2611, the Hysteresis [3, 13] was 0.0167 and the Sorption [3, 13] was 0.2443. For the same compound, the Desorption [3, 14] was 0.2923, the Hysteresis [3, 14] was 0.0177 and the Sorption [3, 14] was 0.2746. For the same compound, the Desorption [3, 15] was 0.3219, the Hysteresis [3, 15] was 0.0176 and the Sorption [3, 15] was 0.3043. It also gave a Desorption [3, 16] of 0.3457, a Hysteresis [3, 16] of 0.0099 and a Sorption [3, 16] of 0.3458. It also gave a Desorption [3, 17] of 0.3759, a Sorption [3, 17] of 0.3759 and a Desorption [3, 18] of 0.0000. The Desorption [3, 19] was 0.1080, the Desorption [3, 20] was 0.1542 and the Desorption [3, 21] was 0.1894. For the same compound, the Desorption [3, 22] was 0.2213, the Desorption [3, 23] was 0.2553 and the Desorption [3, 24] was 0.2989. It also gave a Hysteresis [3, 24] of 0.0002, a Sorption [3, 24] of 0.2896 and a Desorption [3, 25] of 0.3213. The Hysteresis [3, 25] was 0.0053, the Sorption [3, 25] was 0.3160 and the Desorption [3, 26] was 0.3490. The Hysteresis [3, 26] was 0.0064, the Sorption [3, 26] was 0.3426 and the Desorption [3, 27] was 0.3817. For the same compound, the Sorption [3, 27] was 0.3817, the “Purity, 2 to 8°C (6 months)” value ([4]; 2 to 8°C, 6 months) was 99.90% and the “Purity, Onset” value [4] was 99.95%. For the same compound, the “Purity, 60°C (7 day)” value ([4]; oven, 60°C, 7 day) was 99.90%, the “Purity, 80°C (1 day)” value ([4]; oven) was 99.35% and the “Grindability (mortar 5 min), purity change” value [5] was “purity unchanged”. The “Grindability (mortar 5 min), solid form” value [5] was “Crystalline form unchanged”, the “Compressibility (20 Mp)” value [6] was “Crystal form unchanged” and the “Crystallinity after tableting and grinding” value (“Crystallinity” for short) ([7]; first and second tableting at 20 MPa, tableting at 40 MPa, grinding for 1, 3 and 5 minutes, FIG. 24, 25) was “basically stable”.
For `O=C(O)c1ccc2nc(CN3CCC(c4ccccc4OCc4ccc(Cl)cc4F)CC3)n(C[C@@H]3CCO3)c2c1` [Crystal form I of the compound of formula I] [(S)-2-((4-(2-((4-Chloro-2-fluorobenzyl)oxy)phenyl)piperidin-1-yl)methyl)-1-(oxetan-2-aminomethyl)-1H-benzo[d]imidazole-6-carboxylic acid], the “Hygroscopicity (80% RH)” value [3] was 2.5%, the “Hygroscopicity (80% RH), description in words” value [3] was “highly hygroscopic” and the Desorption [3, 18] was 0.013. It also gave a Sorption [3, 18] of 0.019, a Desorption [3, 19] of 0.807 and a Hysteresis [3, 19] of 0.042. The Sorption [3, 19] was 0.766, the Desorption [3, 20] was 1.307 and the Hysteresis [3, 20] was 0.035. For the same compound, the Sorption [3, 20] was 1.271, the Desorption [3, 21] was 1.588 and the Hysteresis [3, 21] was 0.047. It also gave a Sorption [3, 21] of 1.541, a Desorption [3, 22] of 1.816 and a Hysteresis [3, 22] of 0.062. For the same compound, the Sorption [3, 22] was 1.754, the Desorption [3, 23] was 2.072 and the Hysteresis [3, 23] was 0.112. For the same compound, the Sorption [3, 23] was 1.960, the Desorption [3, 24] was 2.286 and the Hysteresis [3, 24] was 0.125. For the same compound, the Sorption [3, 24] was 2.161, the Desorption [3, 25] was 2.441 and the Hysteresis [3, 25] was 0.097. The Sorption [3, 25] was 2.344, the Desorption [3, 26] was 2.576 and the Hysteresis [3, 26] was 0.065. For the same compound, the Sorption [3, 26] was 2.511, the Desorption [3, 27] was 2.685 and the Sorption [3, 27] was 2.685. The “Purity, Onset” value [4] was 99.27%, the “Purity, 80°C (1 day)” value ([4]; oven) was 91.81% and the “Grindability (mortar 5 min), purity” value [5] was 99.25%. The “Grindability (mortar 5 min), solid form” value [5] was “transformed to amorphous”, the “Compressibility (20 Mp)” value [6] was “Crystal form I, significant reduction in crystallinity” and the “Crystallinity” value [7, 28] was “decreasing crystallinity in different degrees”.
With `O=C(O)c1ccc2nc(CN3CCC(c4ccccc4OCc4ccc(Cl)cc4F)CC3)n(C[C@@H]3CCO3)c2c1` [Crystal form II of the compound of formula I] [(S)-2-((4-(2-((4-Chloro-2-fluorobenzyl)oxy)phenyl)piperidin-1-yl)methyl)-1-(oxetan-2-aminomethyl)-1H-benzo[d]imidazole-6-carboxylic acid] the “Solid form after 80°C (1 day)” value [2] was “transformed to amorphous”, the “Purity, Onset” value [4] was 99.73% and the “Purity, 80°C (1 day)” value ([4]; oven) was 80.43%. The “Grindability (mortar 5 min), purity” value [5] was 99.7%, the “Grindability (mortar 5 min), solid form” value [5] was “transformed to amorphous” and the “Compressibility (20 Mp)” value [6] was “Crystal form II, significant reduction in crystallinity”. For the same compound, the “Crystallinity” value [7, 28] was “decreasing crystallinity in different degrees”.
In the case of `O=C(O)c1ccc2nc(CN3CCC(c4ccccc4OCc4ccc(Cl)cc4F)CC3)n(C[C@@H]3CCO3)c2c1` [Crystal form III of the compound of formula I] [(S)-2-((4-(2-((4-Chloro-2-fluorobenzyl)oxy)phenyl)piperidin-1-yl)methyl)-1-(oxetan-2-aminomethyl)-1H-benzo[d]imidazole-6-carboxylic acid], the “Solid form after 80°C (1 day)” value [2] is reported as “transformed to amorphous”, the “Purity, Onset” value [4] is reported as 99.25% and the “Purity, 80°C (1 day)” value ([4]; oven) is reported as 83.43%. The “Grindability (mortar 5 min), purity” value [5] was 98.65%, the “Grindability (mortar 5 min), solid form” value [5] was “transformed to amorphous” and the “Compressibility (20 Mp)” value [6] was “Crystal form III, no significant reduction in crystallinity”. For the same compound, the “Crystallinity” value [7, 28] was “decreasing crystallinity in different degrees”.
With `O=C([O-])c1ccc2nc(CN3CCC(c4ccccc4OCc4ccc(Cl)cc4F)CC3)n(C[C@@H]3CCO3)c2c1.[Na+]` [Sodium salt of the compound of formula I, Sodium salt of (S)-2-((4-(2-((4-chloro-2-fluorobenzyl)oxy)phenyl)piperidin-1-yl)methyl)-1-(oxetan-2-aminomethyl)-1H-benzo[d]imidazole-6-carboxylate] the “Hygroscopicity (80% RH), description in words” value [3] was “Highly hygroscopic, deliquescent”.
